Here are results for two compounds from article PMC11651172, “Suite of Biochemical and Cell-Based Assays for the Characterization of Kirsten Rat Sarcoma (KRAS) Inhibitors and Degraders” (ACS Pharmacology & Translational Science, 2024).

The target in experiment [1] is T1, KRAS(G12C) (Homo sapiens, UniProt P01116, G12C). Description: pulse target engagement assay. Details: knocking in an ED fragment (and the relevant mutation in KRAS) into the KRAS locus by CRISPR technology; ED tag (ePL, enhanced ProLink); host or cells: A549 (SPRINTer A549 KRAS G12C, homozygous CRISPR knock-in). Particulars: KRAS(G12C) cells, 1 or 5 h incubation, 3 min at 67 °C. Format: cell-based. As to the method:
(§1) Next, we explored the application of KRAS cell lines for a pulse target engagement (TE) assay to profile compounds or identify new ligands. The TE assay is based on the observation that the direct interaction between a compound and its cellular protein target increases the stability of the protein and reduces its turnover.[48],[49],[51] […] Therefore, in our pulse TE assay, cells are incubated with a compound and then subjected to an elevated temperature to induce protein denaturation. Compound binding protects the target protein from denaturation, and consequently preserves enzyme complementation activities with the cellular ED-tagged fusion protein, producing a robust chemiluminescent signal. In the absence of compound binding, the target protein forms denatured aggregates that leads to a loss of complementation ability and decreased chemiluminescent signal (Figure 7).
(§2) We next performed pulse TE assays with a panel of KRAS inhibitors on three KRAS cell lines. […] Cells were incubated with the compounds for 1 or 5 h, followed by a 3 min incubation at 67 °C.
(§3) The pulse target engagement assay was set up in a 96-well format with an 11-point dose response curve (triplicates/dose) and vehicle control. Cells were collected and diluted in complete medium that allowed for a cell seeding of 5000 cells in 40 μL per well in 96-well PCR plates (black, Thermo Fisher Scientific, Waltham, MA). […]
Target sequence in this assay (P01116 1-188 isoform P01116-2 G12C): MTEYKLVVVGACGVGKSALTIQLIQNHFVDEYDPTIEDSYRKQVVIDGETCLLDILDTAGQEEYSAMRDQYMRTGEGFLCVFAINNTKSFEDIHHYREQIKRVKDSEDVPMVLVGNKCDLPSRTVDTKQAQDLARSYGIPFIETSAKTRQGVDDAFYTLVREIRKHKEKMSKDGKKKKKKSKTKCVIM

The target of experiment [2] is T2, KRAS(G12D) (Homo sapiens, UniProt P01116, G12D).
T2 construct: knocking in an ED fragment (and the relevant mutation in KRAS) into the KRAS locus by CRISPR technology; ED tag (ePL, enhanced ProLink); host or cells: A549 (SPRINTer A549 KRAS G12D, CRISPR knock-in)
T2 sequence (P01116 1-188 isoform P01116-2 G12D): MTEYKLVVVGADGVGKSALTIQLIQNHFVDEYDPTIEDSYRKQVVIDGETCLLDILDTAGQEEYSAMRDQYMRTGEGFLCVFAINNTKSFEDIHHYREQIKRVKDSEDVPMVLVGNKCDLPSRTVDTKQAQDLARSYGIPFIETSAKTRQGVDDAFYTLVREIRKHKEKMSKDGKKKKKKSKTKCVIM
The experiment is described as follows: pulse target engagement assay. The format is cell-based. Conditions: KRAS(G12D) cells, 1 or 5 h incubation, 3 min at 67 °C. As to the method:
as §1, §2, §3

Experiment [3] deals with T3, KRAS(WT) (Homo sapiens, UniProt P01116).
T3 construct: knocking in an ED fragment (and the relevant mutation in KRAS) into the KRAS locus by CRISPR technology; ED tag (ePL, enhanced ProLink); host or cells: A549 (SPRINTer A549 KRAS WT, homozygous CRISPR knock-in)
T3 sequence (P01116 1-188 isoform P01116-2): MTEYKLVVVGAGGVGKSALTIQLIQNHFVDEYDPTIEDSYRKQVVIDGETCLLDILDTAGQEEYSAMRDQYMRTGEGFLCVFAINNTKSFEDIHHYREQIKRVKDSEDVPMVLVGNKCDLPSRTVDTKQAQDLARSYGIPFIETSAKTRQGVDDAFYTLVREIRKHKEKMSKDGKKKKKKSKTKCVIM
Description: pulse target engagement assay. Particulars: KRAS(WT) cells, 1 or 5 h incubation, 3 min at 67 °C. The format is cell-based. As to the method:
as §1, §2, §3

For experiment [4], the target named is T1, KRAS(G12C). Set-up: made in house; host or cells: HEK293 (transient transfection, unpurified extract); method as in PMID 32875077, PMID 34715575. Conditions: Western blot, among three different cell lines; cited from earlier work.
Target sequence in this assay (P01116 1-164 G12C): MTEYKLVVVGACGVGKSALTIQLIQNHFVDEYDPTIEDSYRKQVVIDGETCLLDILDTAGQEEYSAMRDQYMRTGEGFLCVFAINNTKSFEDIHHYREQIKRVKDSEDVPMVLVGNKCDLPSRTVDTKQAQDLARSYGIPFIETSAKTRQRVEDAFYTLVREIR
Experiment [5] concerns the target T2, KRAS(G12D). The experiment is described as follows: targeted protein degradation assay (EFC). Format: cell-based. Particulars: A549 ED-KRAS(G12D) cells, 18 h, top dose 10 μM. How it is done:
(§4) We tested the KRAS(G12C)-specific protein degrader LC2 (Figure 1C) with our three KRAS cell lines in the developed protein degradation assay. The assay was set up in homogeneous 384-well format with an 11-point dose response curve, with a top dose of 10 μM and each dose tested in quadruplicate. Cells were incubated with LC2 for 18 h and at the end of incubation, detection reagents containing the complementing EA fragment were added to each well for chemiluminescence quantitation. Shown in Figure 6A, LC2 induced a loss of signal (an indication of protein degradation) in KRAS(G12C) cells with a DC50 of 1.9 μM and a Dmax of 69%, close to the previously described value.[25]
(§5) The gRNAs (crRNA), HiFi Cas9 Nuclease V3, and ATTO 550 tracrRNA used in this study to generate ED-tagged KRAS cell lines were purchased from Integrated DNA Technologies (Coralville, IA). Double-stranded DNAs containing ED or ePL (enhanced ProLink) were purchased from Eurofins Genomics Blue Heron (Bothell, WA). […] The gRNA was first annealed with fluorescence-labeled (ATTO-550) tracrRNA in a 1:1 ratio to form an RNA duplex, followed by incubation with Cas9 nuclease to generate Cas9-gRNA ribonucleoprotein (RNP). […] At 16 h postelectroporation, cells with high fluorescence at 550 nm were sorted to enrich the genome-edited cell populations. […]

The target of experiment [6] is T3, KRAS(WT). Description: targeted protein degradation assay (EFC). Format: cell-based. Particulars: A549 ED-KRAS(WT) cells, 18 h, top dose 10 μM. As to the method: as §4, §5
Experiment [7] addresses T1, KRAS(G12C). The experiment is described as follows: targeted protein degradation assay (EFC). Format: cell-based. Set-up: knocking in an ED fragment (and the relevant mutation in KRAS) into the KRAS locus by CRISPR technology; ED tag (ePL, enhanced ProLink); host or cells: A549 (SPRINTer A549 KRAS G12C, homozygous CRISPR knock-in). As to the method: as §4, §5
Target sequence in this assay (P01116 1-188 isoform P01116-2 G12C): as the sequence (P01116 1-188 isoform P01116-2 G12C) above

Entries after “also recorded” stand apart in the source; their conditions may differ. Where two headings read alike, the source gives them in different places.

With `C#Cc1c(F)ccc2cc(O)cc(-c3ncc4c(N5CC6CCC(C5)N6)nc(OC[C@@]56CCCN5C[C@H](F)C6)nc4c3F)c12` [MRTX1133], the “target engagement (affinity in words)” value in experiment [1] is “some interaction; also recorded: some binding to KRAS(G12C) and KRAS(WT) proteins at high concentration”; in experiment [2], “high selectivity; also recorded: high affinity”; in experiment [3], “some interaction; also recorded: some binding to KRAS(G12C) and KRAS(WT) proteins at high concentration”.
As to `C=C(F)C(=O)N1CCN(c2nc(OC[C@@H]3CCCN3CCCOCCC(=O)N[C@H](C(=O)N3C[C@H](O)C[C@H]3C(=O)NCc3ccc(-c4scnc4C)cc3)C(C)(C)C)nc3c2CCN(c2cccc4cccc(Cl)c24)C3)C[C@@H]1CC#N` [LC2], the DC50 in experiment [4] is 250 to 760 nM; in experiment [7] (A549 ED-KRAS(G12C) cells, 18 h incubation), 1900 nM. Further, the Dmax in experiment [4] is 75%–90%; in experiment [7] (A549), 69%. The results for the protein degradation result in experiment [5] and in experiment [6] were “some degradation in KRAS(G12D) cells at high doses; also recorded: low levels of KRAS(G12D) degradation only at higher concentrations” and “sparing KRAS(WT)”, respectively.
